What was measured:
[1] = tested on: SMN2 minigene (full length SMN2 minigene mRNA containing SMN2 exon 7); test: SMN2 minigene mRNA splicing RT-qPCR assay in cultured cells; format: cell-based, human; conditions: Homo sapiens, HEK293-H; HEK293H cells stably transfected with SMN2-A minigene; 24 hours; 7-point concentration curve; 1.5-fold relative to vehicle-treated cells; read-out: EC1.5x for production of full length SMN2 mRNA
How it was run: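 HEK293H cells stably carrying the SMN2-A minigene treated 24 h at 37° C with compound (DMSO, 200× stock), then lysed. Multiplex RT-qPCR (SMN primers 0.4 μM final; 40 cycles) measures full-length exon 7-containing minigene mRNA, normalized to GAPDH and to vehicle; EC1.5x derived and binned by stars.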

Smn protein = Smn protein assay in cultured cells (SMN HTRF); format: cell-based, human; conditions: 48 hours; for maximum fold (Fold) increase of Smn protein: SMA patient fibroblast cells, 7-point concentration data, fold increase relative to vehicle control (SMN HTRF); for EC1.5x (concentration giving 1.5-fold Smn protein increase): SMA Type 1 patient fibroblast cells (GM03813), 7-point concentration curve, SMN HTRF, concentration producing 1.5 times Smn protein vs DMSO vehicle control, read-out: EC1.5x for Smn protein expression
How it was run: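 Lysates in RIPA with protease inhibitors are incubated overnight at room temperature with HTRF anti-SMN antibodies. EC1.5x is derived from fold increase in ΔF over vehicle.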

melting point	SMILES	EC (1.5-fold) [1]	maximum fold (Fold) increase of Smn protein (Smn protein)	EC1.5x (concentration giving 1.5-fold Smn protein increase) (Smn protein)
118 to 120 °C	COc1ccc(-c2cc3c(F)cc(N4CCN[C@@H](C)C4)cc3oc2=O)cc1OC [Compound 464, 3-(3,4-dimethoxyphenyl)-5-fluoro-7-[(3S)-3-methylpiperazin-1-yl]-2H-chromen-2-one]	0.1 to 0.3 µM	*** (fold increase between >1.35 and ≤1.5)	
246 to 253 °C	Cc1cn2cc(-c3cc4ccc(N5C[C@@H]6CCCN[C@@H]6C5)cc4oc3=O)nc2c(C)n1 [Compound 794, 3-(6,8-dimethylimidazo[1,2-a]pyrazin-2-yl)-7-[(4aS,7aS)-octahydro-6H-pyrrolo[3,4-b]pyridin-6-yl]-2H-chromen-2-one]	< 0.1 µM	**** (fold increase between >1.5 and ≤1.65)	< 300 nM
220 to 223 °C	Cc1cn2cc(-c3cc4ccc(CN5CCN(C)CC5)cc4oc3=O)nc2c(C)n1 [Compound 849, 3-(6,8-dimethylimidazo[1,2-a]pyrazin-2-yl)-7-[(4-methylpiperazin-1-yl)methyl]-2H-chromen-2-one]	0.1 to 0.3 µM	***** (fold increase >1.65)	300 to 1000 nM
180 to 182 °C	Cc1nccn2cc(-c3cc4ccc(N5CCCN(C)CC5)cc4oc3=O)nc12 [Compound 558, 7-(4-methyl-1,4-diazepan-1-yl)-3-(8-methylimidazo[1,2-a]pyrazin-2-yl)-2H-chromen-2-one]	< 0.1 µM	**** (fold increase between >1.5 and ≤1.65)	300 to 1000 nM
220 to 228 °C	Cc1cn2cc(-c3cc4ccc(N5CC(N6CCCCC6C)C5)cc4oc3=O)nc2c(C)n1 (stereo not drawn) [Compound 942, 3-(6,8-dimethylimidazo[1,2-a]pyrazin-2-yl)-7-[3-(2-methylpiperidin-1-yl)azetidin-1-yl]-2H-chromen-2-one]	< 0.1 µM	*** (fold increase between >1.35 and ≤1.5)	1000 to 3000 nM
223 to 233 °C	Cc1cc(F)cn2cc(-c3cc4ccc(N5CCN(C)CC5)cc4oc3=O)nc12 [Compound 329, 3-(6-fluoro-8-methylimidazo[1,2-a]pyridin-2-yl)-7-(4-methylpiperazin-1-yl)-2H-chromen-2-one]	0.3 to 1 µM	* (maximum fold increase of ≤1.2)	
256 to 259 °C	Cc1cn2cc(-c3cc4ccc(N5CCC(CN)CC5)cc4oc3=O)cc2c(C)n1 [Compound 784, 7-[4-(aminomethyl)piperidin-1-yl]-3-(1,3-dimethylpyrrolo[1,2-a]pyrazin-7-yl)-2H-chromen-2-one]	1 to 3 µM	** (fold increase between >1.2 and ≤1.35)	
195 to 200 °C	Cc1cn2cc(-c3cc4ccc(C5CCN(CCCF)CC5)cc4oc3=O)nc2c(C)n1 [Compound 906, 3-(6,8-dimethylimidazo[1,2-a]pyrazin-2-yl)-7-[1-(3-fluoropropyl)piperidin-4-yl]-2H-chromen-2-one]	< 0.1 µM	***** (fold increase >1.65)	< 300 nM
203 to 205 °C	Cc1cc2cc(-c3cc4ccc(N5CCN6CCC[C@H]6C5)cc4oc3=O)oc2c(C)n1 [Compound 745, 3-(5,7-dimethylfuro[2,3-c]pyridin-2-yl)-7-[(8aS)-hexahydropyrrolo[1,2-a]pyrazin-2(1H)-yl]-2H-chromen-2-one]	< 0.1 µM	***** (fold increase >1.65)	< 300 nM

Continued, molecule first:

SMILES	melting point	EC (1.5-fold) [1]	maximum fold (Fold) increase of Smn protein (Smn protein)	EC1.5x (concentration giving 1.5-fold Smn protein increase) (Smn protein)
Cn1c(-c2cc3ccc(N4CCN(C(=O)OCc5ccccc5)CC4)cc3oc2=O)nc2ccccc21 [Compound 43, benzyl 4-[3-(1-methyl-1H-benzimidazol-2-yl)-2-oxo-2H-chromen-7-yl]piperazine-1-carboxylate]	253 to 254 °C	3 to 30 µM	* (maximum fold increase of ≤1.2)	
C[C@@H]1CN(c2ccc3cc(-c4cn5ccsc5n4)c(=O)oc3c2)C[C@H](C)N1 [Compound 167, 7-[(3R,5S)-3,5-dimethylpiperazin-1-yl]-3-(imidazo[2,1-b][1,3]thiazol-6-yl)-2H-chromen-2-one]	263 to 265 °C	0.3 to 1 µM	** (fold increase between >1.2 and ≤1.35)	
Cc1ccc2nc(-c3cc4ccc(N5CCNCC5)c(F)c4oc3=O)cn2c1 [Compound 156, 8-fluoro-3-(6-methylimidazo[1,2-a]pyridin-2-yl)-7-(piperazin-1-yl)-2H-chromen-2-one]	313 to 319 °C	1 to 3 µM	** (fold increase between >1.2 and ≤1.35)	
Cc1cccc2nc(-c3cc4ccc(N5CCN(C)CC5)cc4oc3=O)cn12 [Compound 135, 3-(5-methylimidazo[1,2-a]pyridin-2-yl)-7-(4-methylpiperazin-1-yl)-2H-chromen-2-one]	263 to 272 °C	0.3 to 1 µM	** (fold increase between >1.2 and ≤1.35)	
Cc1nccn2cc(-c3cc4ccc(N5CCNCC5)cc4oc3=O)cc12 [Compound 555, 3-(1-methylpyrrolo[1,2-a]pyrazin-7-yl)-7-(piperazin-1-yl)-2H-chromen-2-one]	264 to 266 °C	0.1 to 0.3 µM	**** (fold increase between >1.5 and ≤1.65)	< 300 nM
Cc1cn2cc(-c3cc4ccc(N5C[C@H]6CCN(C)[C@H]6C5)cc4oc3=O)nc2c(C)n1 [Compound 704, 3-(6,8-dimethylimidazo[1,2-a]pyrazin-2-yl)-7-[(3aR,6aR)-1-methylhexahydropyrrolo[3,4-b]pyrrol-5(1H)-yl]-2H-chromen-2-one]	255 to 263 °C	< 0.1 µM	**** (fold increase between >1.5 and ≤1.65)	< 300 nM
Cc1cn2cc(-c3cc4ccc(CCNC(C)CO)cc4oc3=O)nc2c(C)n1 (stereo not drawn) [Compound 872, 3-(6,8-dimethylimidazo[1,2-a]pyrazin-2-yl)-7-{2-[(1-hydroxypropan-2-yl)amino]ethyl}-2H-chromen-2-one]	203 to 206 °C	0.1 to 0.3 µM	**** (fold increase between >1.5 and ≤1.65)	300 to 1000 nM
CN1CCC(N(C)c2ccc3cc(-c4cn5cccnc5n4)c(=O)oc3c2)C1 (stereo not drawn) [Compound 181, 3-(imidazo[1,2-a]pyrimidin-2-yl)-7-[methyl(1-methylpyrrolidin-3-yl)amino]-2H-chromen-2-one]	215 to 217 °C	< 0.1 µM	** (fold increase between >1.2 and ≤1.35)	
Cc1ccc(Nc2cc3ccc(N4CCNCC4)cc3oc2=O)nc1 [Compound 63, 3-[(5-methylpyridin-2-yl)amino]-7-(piperazin-1-yl)-2H-chromen-2-one]	225 to 228 °C	1 to 3 µM	** (fold increase between >1.2 and ≤1.35)	
